# Experimental data from US20160032401A1, “Glycine, Mitochondrial One-Carbon Metabolism, and Cancer” (THE GENERAL HOSPITAL CORPORATION, priority 2013, published 2016).
# Substitutions are numbered along the chain they refer to. Where two headings read alike, the source gives them in different places.
# Legend:
# MTHFD2 [1] = biological target: T1, MTHFD2 (Homo sapiens, UniProt P13995); settings: published values (Yang and MacKenzie 1993); cited from earlier work
# T1 construct: 12 amino acids were removed from the unstructured C-terminus of the protein, and a 6-histidine tag added to facilitate purification; 6-histidine tag (C); made in house; host or cells: E. coli One Shot BL21 Star (DE3), pET-30a(+)
# T1 sequence (P13995 with tags, fused parts or gaps): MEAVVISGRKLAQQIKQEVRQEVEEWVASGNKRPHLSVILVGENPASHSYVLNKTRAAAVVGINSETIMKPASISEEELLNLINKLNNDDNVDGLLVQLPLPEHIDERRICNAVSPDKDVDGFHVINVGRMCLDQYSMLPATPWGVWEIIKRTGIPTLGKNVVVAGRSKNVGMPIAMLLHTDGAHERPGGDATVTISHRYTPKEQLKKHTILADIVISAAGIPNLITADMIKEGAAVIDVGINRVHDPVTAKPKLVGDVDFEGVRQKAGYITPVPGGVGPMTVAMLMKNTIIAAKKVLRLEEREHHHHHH
# MTHFD2 [2] = biological target: T1, MTHFD2; assay: Enzyme kinetics of recombinant MTHFD2 in the modified 384 well assay; assay type: biochemical; settings: recombinant MTHFD2, 384 well plate format; read-out: Km, Measured
# Description: (§1) The NAD-dependent methylenetetrahydrofolate dehydrogenase/cyclohydrolase activity assay employed in this microtiter well based screen is based on previously published enzymatic assays, with modifications as listed below. The assay was initially reported by Scrimgeour and Huennekens, Biochem. Biophys. Res. Commun. 1960, 2:230-233 and subsequently by Mejia and MacKenzie, The Journal of biological chemistry. 1985; 260:14616-14620). The assay was performed as described with slight modifications (reported assay concentrations in the Mejia et al. assay are provided in brackets below). The modified assay utilized 50 ng of recombinant MTHFD2 protein produced as described in Example 11 per well in 384 well format. In addition, the present assay utilized 30 […], at pH 7.5 (7.3), with 150 uM formaldehyde (2.5 mM), 150 uM tetrahydrofolate (250 uM) and 6 mM MgCl (5 mM). No 2-mercaptoethanol or reducing agents were used in the present assay, which is crucial for detection of cysteine modifying compounds as potential enzyme inhibitors. The assay employed for high-throughput screening for chemical inhibitors used the final endpoint measure of formation of 5,10-methenyltetrahydrofolate by spectrophotometric absorbance at 340 nm.
# NCI-60 cancer cell lines = assay: Association between glycine consumption and compound sensitivity (GI50) across the 60 cell lines; assay type: cell-based, human; settings: NCI public data, FIG. 3
# From the text: Compound sensitivity data for glutathione biosynthesis and de novo purine biosynthesis inhibitors was obtained from the NCI data repository (October 2009 release). Compound sensitivity was quantified using the GI50 measure (Shoemaker, Nat Rev Cancer. 2006; 6:813-823), defined as the compound concentration inhibiting cell growth by 50%. For those compounds in which multiple experiments with different concentration ranges were available, the experiment with the least degree of saturation was used.
# Given the observation that glycine consumption is correlated to rapid cancer cell proliferation (see Examples 1-5, above), the present inventors sought to determine whether glycine consumption predicts sensitivity to particular chemotherapeutic agents. The association between glycine update and sensitivity to 3851 annotated small molecules (data provided to the public by NCI) was examined bioinformatically across the 60 cell lines.
# MTHFD2 C166S mutant = biological target: T2, MTHFD2 C166S mutant (Homo sapiens, UniProt P13995, C166S); assay: Same activity assay on MTHFD2 C166 cysteine to serine mutant; assay type: biochemical
# T2 construct: 12 amino acids were removed from the unstructured C-terminus of the protein, and a 6-histidine tag added to facilitate purification; 6-histidine tag (C); made in house
# T2 sequence (P13995 with tags, fused parts or gaps C166S): T1 sequence (P13995 with tags, fused parts or gaps) with C132S
# Description: as §1, with “nm. […]” for “nm.”
# MTHFD2 C145S mutant = biological target: T3, MTHFD2 C145S mutant (Homo sapiens, UniProt P13995, C145S); assay: Same activity assay on MTHFD2 C145 cysteine to serine mutant; assay type: biochemical
# T3 construct: 12 amino acids were removed from the unstructured C-terminus of the protein, and a 6-histidine tag added to facilitate purification; 6-histidine tag (C); made in house
# T3 sequence (P13995 with tags, fused parts or gaps C145S): T1 sequence (P13995 with tags, fused parts or gaps) with C111S
# Description: as §1, with “nm. […]” for “nm.”
# [3] = biological target: T4, recombinant MTHFD2 protein (human, wild type) (Homo sapiens, UniProt P13995); assay: NAD-dependent methylenetetrahydrofolate dehydrogenase/cyclohydrolase activity assay, 384 well, no reducing agents; assay type: biochemical; settings: for inhibition of MTHFD2 enzyme in high throughput screen: screen of about 5,100 small molecules, biological duplicate, no reducing agents
# T4 construct: 12 amino acids were removed from the unstructured C-terminus of the protein, and a 6-histidine tag added to facilitate purification; 6-histidine tag (C); made in house; host or cells: E. coli One Shot BL21 Star (DE3), pET-30a(+)
# T4 sequence (P13995 with tags, fused parts or gaps): T1 sequence (P13995 with tags, fused parts or gaps)
# Description: as §1
# The assay described in Example 12 was used to screen a library of about 5,100 small molecule agents in the Prestwick chemical library, Known Bioactives Library and Library of Pharmacologically Active Compounds, in biological duplicate. […] Several of the high scoring inhibitors are known cysteine modifiers that could in principle inhibit enzyme activity by modification of cysteine residues.
# Three mutant MTHFD2 constructs were generated with Agilent QuikChange Lightening, with cysteine to serine mutations at C145, C166 or both C145/C166. These mutants were retested with three of the compounds identified in the secondary screen (6-hydroxy-DL-DOPA, Celastrol, and Ebselen). […] Given the identification of these cysteine residues, additional structure/medicinal chemistry may be employed to specifically design small molecules that take advantage of these cysteine residues and inhibit MTHFD2 with greater selectivity.
# [4] = biological target: T5, MTHFD2 C145S/C166S mutant (Homo sapiens, UniProt P13995, C145S/C166S); assay: Same activity assay on MTHFD2 C145/C166 double mutant; assay type: biochemical
# T5 construct: 12 amino acids were removed from the unstructured C-terminus of the protein, and a 6-histidine tag added to facilitate purification; 6-histidine tag (C); made in house
# T5 sequence (P13995 with tags, fused parts or gaps C145S/C166S): T1 sequence (P13995 with tags, fused parts or gaps) with C111S, C132S
# Description: as §1, with “nm. […]” for “nm.”
# LOX IMVI cells = assay: Rescue of SHMT2-silenced LOX IMVI cells grown in the absence of glycine; assay type: cell-based, human; settings: supplement 140 μM
# Description: (§2) For lentiviral infection, 100,000 cells were seeded in a 6-well dish in 2 mL medium containing 8 μg/ml Polybrene and 100 μl viral supernatant added. Plates were centrifuged at 800×g for 30 minutes at 37° C., and the medium replaced. Twenty-four hours later, cells were selected for infection by the addition of 2 μg/ml puromycin. […] Cells were passaged for >10 cell divisions to ensure stable expression of the shRNA construct. For assessment of SHMT2 knockdown, mRNA was isolated from cells using RNeasy kit (Qiagen), and qRT-PCR was performed for SHMT2 and HPRT1 using the Taqman assay (Applied Biosystems assay ID Hs00193658_m1* and Hs01003267_m1*, respectively), according to manufacturer's instructions. For experiments using A498 and LOX IMVI, cells were infected with either sh1-4 or shCtrl lentivirus and stable expressing cells selected as above. For experiments utilizing NCI-H226, HS-578T, TK10, EKVX, OVCAR-8, U251, A549, HT29, NCI-460 and HCT-116, cells were infected with either sh4 or shCtrl lentivirus and stable expressing cells selected as above. […] For all experiments, cells were counted and cell counts expressed as fold change over time. […] Cells were counted at regular time intervals as described above. All experiments were performed using at least 10 independent cell cultures.
# [5] = system: 10 additional primary cancer cell lines from the NCI-60 panel; settings: FIG. 1G
# Description: as §2
structure (smiles),measurement,setting,value
"Nc1nc2c(c(=O)[nH]1)N1CN(c3ccc(C(=O)N[C@@H](CCC(=O)O)C(=O)O)cc3)CC1CN2 (some centres unmarked) [5,10 CH2—THF]",Km,MTHFD2 [1],6.7 µM
same,Km,MTHFD2 [2],4.1 µM
O=c1[nH]cc(F)c(=O)[nH]1 [5-fluorouracil],sensitivity of glycine consuming cells to the agent (correlation of glycine consumption with sensitivity),NCI-60 cancer cell lines,not more sensitive
NC(Cc1cc(O)c(O)cc1O)C(=O)O (stereo not drawn) [6-hydroxy-DL DOPA],inhibition of C166 mutant MTHFD2,MTHFD2 C166S mutant,inhibited
same,inhibition of C145 mutant MTHFD2,MTHFD2 C145S mutant,inhibited
same,inhibition of wild type MTHFD2 with addition of the reducing agent DTT,[3]; plus DTT,not antagonized
same,inhibition of wild type MTHFD2,"[3]; retest with mutants, FIGS. 9A-C",inhibited
same,inhibition of MTHFD2 enzyme in high throughput screen,[3],inhibit the enzyme
same,inhibition of C145/C166 double mutant MTHFD2,[4],inhibited
O=C1Nc2ccc(I)cc2/C1=C/c1cc(Br)c(O)c(Br)c1 [GW5074],inhibition of MTHFD2 enzyme in high throughput screen,[3],inhibit the enzyme
NC(=O)c1ccc[n+]([C@@H]2O[C@H](COP(=O)([O-])OP(=O)(O)OC[C@H]3O[C@@H](n4cnc5c(N)ncnc54)[C@H](O)[C@@H]3O)[C@@H](O)[C@H]2O)c1 [NAD+],Km,MTHFD2 [1],56.4 µM
same,Km,MTHFD2 [2],51.5 µM
Clc1ccc(C(c2ccc(Cl)cc2)n2cc[n+](CC(OCc3ccc(Cl)cc3Cl)c3ccc(Cl)cc3Cl)c2)cc1 (centres unmarked) [calmidazolium chloride],inhibition of MTHFD2 enzyme in high throughput screen,[3],inhibit the enzyme
O=CO [formate],rescue of proliferation of SHMT2-silenced LOX IMVI cells,LOX IMVI cells,failed to rescue
NCC(=O)O [glycine],rescue by addition of extracellular glycine in rapidly proliferating SHMT2-silenced cancer cells,[5],rescued
same,rescue of proliferation of SHMT2-silenced LOX IMVI cells,LOX IMVI cells,rescued
NC(=O)CI [iodoacetamide],inhibition of MTHFD2 enzyme in high throughput screen,[3],inhibit the enzyme
"CN(Cc1cnc2nc(N)nc(N)c2n1)c1ccc(C(=O)N[C@@H](CCC(=O)O)C(=O)O)cc1 [methotrexate, Glutamic acid, N-[p-[[(2,4-diamino-6-pteridinyl)methyl]methylamino]benzoyl]-, L-(+)-(8CI)]",sensitivity of glycine consuming cells to the agent (correlation of glycine consumption with sensitivity),NCI-60 cancer cell lines,uniquely sensitive
O=C1C=CC(=O)C=C1 [para-benzoquinone],inhibition of MTHFD2 enzyme in high throughput screen,[3],inhibit the enzyme
C=CC1=C(C)c2cc3[nH]c(cc4nc(cc5[nH]c(cc1n2)c(C)c5CCC(=O)O)C(CCC(=O)O)=C4C)c(C)c3C=C [protoporphyrin IX disodium],inhibition of MTHFD2 enzyme in high throughput screen,[3],inhibit the enzyme
